Measurements: the METLIN SMRT retention time set (Domingo-Almenara et al. 2019)

Experiment: gradient 5% acetonitrile 3 min, to 50% in 2 min, to 85% in 15 min, held 3 min, 100 µL/min
Details: column: Zorbax Extend-C18 2.1 x 50 mm; eluents: water / acetonitrile, 0.1% formic acid
Summary of the method: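 Each retention time is based on an adduct peak selected computationally and verified by manual inspection. Measurements used HPLC–quadrupole time-of-flight mass spectrometry in positive and negative ionization mode on mixtures of ~100 pure standards. Chromatography ran on a Zorbax Extend-C18 column (2.1 × 50 mm, 1.8 μm) at 100 μL/min with water and acetonitrile, each containing 0.1% formic acid, and dead and dwell volumes of 40 μL and 900 μL.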

## CC(C)C(=O)N1CCCc2ccc(NC(=O)c3ccco3)cc21
  RP-LC retention time: 789 s

## N#CCn1nc2n(c1=O)CCN(C(=O)c1cc(C3CC3)[nH]n1)CC2
  RP-LC retention time: 595 s

## COc1ccc(-c2csc(NC(=O)c3ccc4c(c3)OCCO4)n2)cc1OC
  RP-LC retention time: 963 s

## O=C(NCC1CC(=O)N(c2ccc3c(c2)OCO3)C1)Nc1ccccc1C(F)(F)F (centres undefined)
  RP-LC retention time: 717 s

## CCN1CCn2cc(S(=O)(=O)NCc3cc(F)cc(F)c3)cc2C1=O
  RP-LC retention time: 794 s

## COC(=O)CN1CN(c2ccc(C)cc2)c2ncccc2S1(=O)=O
  RP-LC retention time: 894 s

## CNC(=O)c1nc(C(=O)NCCc2ccc(OC)c(OC)c2)cs1
  RP-LC retention time: 623 s

## Cc1ccc(Cl)cc1NC(=O)N(C)CC1CCOC1 (centres undefined)
  RP-LC retention time: 757 s

## COc1ccc2c(c1)[C@H]1OCCC[C@H]1C(c1cccc(O)c1)N2 (some centres undefined)
  RP-LC retention time: 793 s

## COc1ccc(-c2nc(Cn3ccn4nc(-c5ccccc5)cc4c3=O)c(C)o2)cc1
  RP-LC retention time: 1100 s

## COc1ccc(Cc2nc(-c3cccc(-c4ccn[nH]4)c3)no2)c(Cl)c1
  RP-LC retention time: 1000 s

## O=C(Nc1ccccc1F)N1CCN(CCn2c(C(F)(F)F)nc3cccnc32)CC1
  RP-LC retention time: 624 s

## Cc1ccccc1CNC(=O)C1(c2ccc(NS(C)(=O)=O)cc2)CCCCC1
  RP-LC retention time: 917 s

## O=C1[C@H]2CN(Cc3ccc(Cl)c(F)c3)C[C@H]2C(=O)N1Cc1ccc2c(c1)OCO2
  RP-LC retention time: 953 s

## CCC(c1cccs1)N1C(=O)[C@H]2CN(S(=O)(=O)c3cccc(OC)c3)C[C@H]2C1=O (some centres undefined)
  RP-LC retention time: 1010 s

## CC(C)OC(=O)c1cc2ccsc2n1CC(=O)NCc1ccc(F)cc1
  RP-LC retention time: 954 s

## Cn1ncc2c3ccccc3n(CC(=O)NCCc3cccs3)c2c1=O
  RP-LC retention time: 784 s

## Cc1nccn1Cc1nc(-c2ccccc2Cl)no1
  RP-LC retention time: 624 s

## CC(C)c1noc(-c2cc(=O)n(CC(=O)Nc3ccccc3)c3ccccc23)n1
  RP-LC retention time: 972 s

## Fc1cccc(N2CC3(CCNCC3)C2c2ccccc2)c1 (centres undefined)
  RP-LC retention time: 721 s

## Cc1nn(-c2nc(-c3ccc(Cl)cc3)cs2)c(C)c1CC(=O)NC(C)C
  RP-LC retention time: 1080 s

## COc1ccc(S(=O)(=O)N2CCC3(CC2)CC(C)(O)CCO3)cc1 (centres undefined)
  RP-LC retention time: 752 s

## C[C@@H]1OC(Oc2ccccc2-c2cc(=O)c3c(O)cc(O)c([C@@H]4O[C@H](CO)[C@@H](O)[C@H](O)[C@H]4O)c3o2)[C@H](O)[C@H](O)[C@H]1O (some centres undefined)
  RP-LC retention time: 622 s

## O=C(COc1ccc(F)cc1)NCC1(c2cccs2)CC1
  RP-LC retention time: 882 s

## COC(=O)c1cccc(NC(=O)c2csc(-c3cn(C)c4ncccc34)n2)c1
  RP-LC retention time: 984 s

## O=C(NCc1ccccc1)C1=C2CCCN2c2ccccc2S1(=O)=O
  RP-LC retention time: 810 s

## CS(=O)(=O)c1ccccc1NC(=O)C1CCCCN1S(=O)(=O)c1cccs1 (centres undefined)
  RP-LC retention time: 837 s

## Cc1cccc(-c2nnc(Cc3nc(-c4ccc5c(c4)OCO5)no3)o2)c1
  RP-LC retention time: 1010 s

## CC(=O)Nc1ccc(S(=O)(=O)NCCc2csc(C)n2)cc1
  RP-LC retention time: 600 s

## Cc1cccc(-c2noc(C3CCCN3S(=O)(=O)c3ccc(C)c(C)c3)n2)c1 (centres undefined)
  RP-LC retention time: 1210 s

## CC(C)Oc1ccccc1CN1CC(c2nc(-c3ccncc3)nn2C)C1
  RP-LC retention time: 590 s

## O=C(CCc1cn(Cc2ccccc2Cl)c2ccccc12)N1CCN(c2ccccn2)CC1
  RP-LC retention time: 796 s

## Cc1nc(-c2csc(S(=O)(=O)N3CCC(C(=O)N4CCCC4)CC3)c2)no1
  RP-LC retention time: 760 s

## CCCn1c(-c2cccc(C(=O)NC3CCCC3)c2)nc2cccnc21
  RP-LC retention time: 772 s

## COc1ccccc1N1CCN(C(=O)Cn2c(N3CCc4ccccc4C3)nc(C)cc2=O)CC1
  RP-LC retention time: 759 s

## CCn1ccc2c(cc(C(=O)Nc3ccc4c(c3)OCCO4)n2C)c1=O
  RP-LC retention time: 721 s

## Cc1noc(-c2ccc(-n3cnc(C(=O)NCC4CC4)c3)nc2)n1
  RP-LC retention time: 727 s

## O=C(Cc1ccc(Br)cc1)Nc1nc(-c2ccccc2)cs1
  RP-LC retention time: 1100 s

## CCOC(=O)C1CCN(C(=O)C2CCCN(c3cnc4nccnc4c3)C2)CC1 (centres undefined)
  RP-LC retention time: 686 s

## O=C(Nc1nccs1)c1cn(Cc2ccc(F)cc2)cc2c(=O)n(-c3ccccc3)nc1-2
  RP-LC retention time: 957 s

## CCCCN1C(=O)CN(S(=O)(=O)c2ccccc2)CC1(C)C(=O)NCc1ccc(C)cc1 (centres undefined)
  RP-LC retention time: 805 s

## CCOc1ccc(C(=O)N2CCCC2c2nc(-c3ccc(OC)c(OC)c3)no2)cc1OCC (centres undefined)
  RP-LC retention time: 916 s

## Cc1ccc(NC(=O)Cn2cnc3nc(N4CCC(C(=O)NC5CC5)CC4)sc3c2=O)cc1F
  RP-LC retention time: 703 s

## O=C(Nc1cccnc1)C1CCCN(S(=O)(=O)c2cc(-c3noc(C4CCCC4)n3)cs2)C1 (centres undefined)
  RP-LC retention time: 825 s

## CCCc1cc(N2CCN(C(=O)COc3ccccc3)CC2)nc2nncn12
  RP-LC retention time: 640 s

## O=C(Cn1ccn2nc(-c3ccc(F)cc3)c(CO)c2c1=O)Nc1ccc(Cl)cc1
  RP-LC retention time: 880 s

## CCc1noc(NC(C)=O)c1-c1ccc(OC)c(S(=O)(=O)NC(C)C)c1
  RP-LC retention time: 695 s

## CCc1nc2c(c(=O)n1CC(=O)NC1CCCCC1)CN(Cc1ccccc1)CC2
  RP-LC retention time: 652 s

## Cc1ccc(/C=C/c2nc(-c3ccc4c(c3)oc(=O)n4C)no2)cc1
  RP-LC retention time: 1110 s

## O=C(CCc1c[nH]c2ccccc12)N1CCc2cc(-c3ccno3)ccc21
  RP-LC retention time: 984 s

## O=C(CCNc1c(-c2ccccc2)nc2cnccn12)NCC1CCCO1 (centres undefined)
  RP-LC retention time: 576 s

## Cc1cc(C)cc(N2CCC(NC(=O)Nc3ccccc3)C2=O)c1 (centres undefined)
  RP-LC retention time: 862 s

## COc1ccc(-c2nc3ncccn3c2NCc2ccc(Cl)cc2)cc1OC
  RP-LC retention time: 717 s

## COCCN1C(=O)c2ccccc2C(C(=O)Nc2ccc(OC)c(OC)c2)C12CCCC2 (centres undefined)
  RP-LC retention time: 776 s

## CCN(CC)C(C(=O)NC1CCCC1)c1cc2c(cc1[N+](=O)[O-])OCO2 (centres undefined)
  RP-LC retention time: 586 s

## CCS(=O)(=O)N1CCCc2cc(C(=O)NCCOC)ccc21
  RP-LC retention time: 682 s

## Cc1ccc(C)c(Nc2nc(-c3ccccc3)cs2)c1
  RP-LC retention time: 1200 s

## COCCCNC(=O)N1CCCN(C2=NS(=O)(=O)C(c3ccc(F)cc3)=C2C)CC1
  RP-LC retention time: 709 s

## O=C(c1cncnc1)N1CCC(F)(F)C(COCC2CC2)C1 (centres undefined)
  RP-LC retention time: 683 s

## Cc1cccc(-n2c(N3CCCC(C(=O)Nc4ccc(Cl)cc4)C3)nc3ccsc3c2=O)c1 (centres undefined)
  RP-LC retention time: 1080 s

## CCCNC(=O)CC1CCN(C(=O)c2[nH]c(C)c(C)c2C)CC1
  RP-LC retention time: 698 s

## O=C(NCc1ccc(C(F)(F)F)cc1)c1cn2c(n1)CCCC2
  RP-LC retention time: 646 s

## COc1ccc(C2C(C(=O)NCCCN3CCOCC3)CCC(=O)N2c2ccc(OC)cc2)cc1 (centres undefined)
  RP-LC retention time: 580 s

## Cc1c(C(=O)N2CCOCC2)sc2nc(-c3ccccc3)c(NC(C)(C)C)n12
  RP-LC retention time: 778 s

## Cc1ccc(C2Cn3cnc(C(=O)N4CCC(C(=O)NC5CCCC5)CC4)c3CO2)cc1 (centres undefined)
  RP-LC retention time: 749 s

## Cc1ccc(C)c(C(=O)N2CCC(c3cc4n(n3)CCCN(C)C4=O)CC2)c1
  RP-LC retention time: 690 s

## COc1ccc(S(=O)(=O)Nc2cccnc2Nc2ccc(O)cc2)cc1
  RP-LC retention time: 687 s

## Cc1cc(N2C=C(C(=O)N3CCOCC3)S(=O)(=O)c3ccc(F)cc32)ccc1Br
  RP-LC retention time: 892 s

## CCCN1C(=O)COc2ccc(-c3noc(Cc4ccc(OC)c(OC)c4)n3)cc21
  RP-LC retention time: 993 s

## CN1C(=O)COc2ccc(-c3csc(NC(=O)C4CCCCC4)n3)cc21
  RP-LC retention time: 988 s

## O=C(NCc1[nH]nc2ccccc12)c1ccc(Br)o1
  RP-LC retention time: 725 s

## Cn1c(C(=O)NCc2ccccc2Cl)cc2ccncc21
  RP-LC retention time: 643 s

## COc1ccccc1NC(=O)N1C[C@@H](F)C[C@H]1C(=O)N1CCOCC1
  RP-LC retention time: 625 s

## CC(=O)c1cccc(C(=O)N2CCC3(CC2)N=C(c2ccc(C)cc2)NO3)c1
  RP-LC retention time: 772 s

## CCOc1ccc(-c2nc(NC(=O)Cc3csc(C)n3)sc2C)cc1
  RP-LC retention time: 938 s

## COc1ccccc1CNC(=O)c1nnc(-c2ccc(S(=O)(=O)N3CCCCC3)cc2)o1
  RP-LC retention time: 911 s

## CCCc1cc(N2CCN(C(=O)c3cccc(N(C)C)c3)CC2)nc2nnc(C)n12
  RP-LC retention time: 606 s

## FCCN(CCF)c1cccc(Cl)c1
  RP-LC retention time: 1060 s

## Cc1ccc(NC(=O)N(C)CCc2noc(COc3cccc(C)c3)n2)cc1
  RP-LC retention time: 972 s

## O=C1COc2ccc(S(=O)(=O)N3CCC(C(=O)N4CCN(c5ccccc5)CC4)CC3)cc2N1
  RP-LC retention time: 766 s

## CCOc1ccccc1C(=O)N1CCN(c2cc(-c3cccs3)[nH]n2)CC1
  RP-LC retention time: 781 s

## CCOc1ccccc1-c1nc(Cc2noc(-c3ccccc3)n2)c(C)o1
  RP-LC retention time: 1170 s

## Cc1ccc(CNC(=O)N2CCC(OC3CCN(Cc4ccccc4)CC3)CC2)cc1
  RP-LC retention time: 681 s

## CCc1ccc(-c2cc(C(=O)N3CCN(C)CC3)[nH]n2)cc1
  RP-LC retention time: 620 s

## COc1ccc(/C=C/c2nn3c(COc4ccc(OC)cc4)nnc3s2)cc1
  RP-LC retention time: 973 s

## O=S(=O)(Cc1ccccc1)N1CCC(OCCOCc2ccccc2)CC1
  RP-LC retention time: 1040 s

## CC1CCN(S(=O)(=O)c2cccn(CC(=O)NCCC3=CCCCC3)c2=O)CC1
  RP-LC retention time: 878 s

## COc1ccccc1-c1ccc(SCC(=O)Nc2ccc3c(c2)OCCO3)nn1
  RP-LC retention time: 792 s

## CCN1CCN(C(=O)CC2CCN(S(=O)(=O)c3ccc(Cl)s3)CC2)CC1
  RP-LC retention time: 647 s
